Experimental data from publication PMC9318819 (Viruses, 2022).
Like-named read-outs stand apart in the source and are kept apart here.

Experiments:
[1] = Primary cell viability by trypan blue counting; format: cell-based; conditions: human, 3 donors, read-out: viability of primary CD4+ T cells
[2] = system: HIV-1 in primary CD4+ T cells from cART-suppressed donors; assay: Ex vivo latency reversal, supernatant viral RNA by qRT-PCR; format: cell-based; conditions: 24 h, 3 donors
[3] = system: HIV provirus expression in J-Lat 10.6 T cells; assay: In vitro HIV latency reversal, GFP expression by flow cytometry; format: cell-based; conditions: 24 h
J-Lat 10.6 cells = assay: Effect of PKC inhibitors Gö 6983 and enzastaurin on LRA-induced latency reversal; format: cell-based; conditions: 1 μM Gö 6983
Jurkat cells = assay: T cell activation, CD69 expression by flow cytometry; format: cell-based; conditions: 24 h
[4] = Cell viability by resazurin dye; format: cell-based; conditions: human, Jurkat T cells (Clone E6-1), parental, lacking HIV provirus, read-out: viability relative to 0.1% DMSO
[5] = system: CXCR4-tropic HIV isolate NL4-3; assay: deCIPhR in vitro anti-HIV replication assay (β-galactosidase, LTR-driven LacZ); format: cell-based
[6] = PBMC viability / cytotoxicity (MTS dye); conditions: human
HeLa-SXR5 cell line = assay: Cytotoxicity under deCIPhR cell culture conditions (Alamar Blue, four days); conditions: four days of incubation, any concentration (0.08 to 5 μg/mL)
[7] = system: HIV-1 (PBL286 (02ET_14), subtype C, Ethiopian isolate); assay: Anti-HIV screening in PBMC (Southern Research Institute); format: cell-based; conditions: for EC50: read-out: Antiviral Activity EC50; for EC90: read-out: Antiviral Activity EC90; for inhibition at 0.08 µg/mL: read-out: inhibition of HIV replication in PBMC
in vitro = conditions: human
[8] = Human immunodeficiency virus 1, PBMC
[9] = Human immunodeficiency virus 1, PBMC, subtype C virus

In the case of `CC(=O)O[C@@]12C[C@@H](C)[C@@]3(O)[C@@H](C=C(CO)C[C@]4(O)C(=O)C(C)=C[C@@H]34)[C@@H]1C2(C)C` [prostratin, reference compound], the viability at 24 h, 10 µM ([1]; 10 μM) is reported as 65.9 ± 12.4%, the “average fold increase in viral RNA” value ([2]; 10 μM) is reported as 23.2 fold and the “average supernatant viral RNA” value ([2]; 10 μM) is reported as 755.5 ± 1144.2 copies/mL. The “GFP expression (latency reversal), % of live-gated cells” value (from here on “GFP expression (latency reversal), %”) ([3]; 2.5 μM) was 66.0 ± 5.7%, the “reduction in latency reversal by pan-PKC inhibitor Gö 6983” value (J-Lat 10.6 cells; LRA at 2.5 μM) was 74.7 ± 17.3% and the CD69-positive cells (Jurkat cells; 2.5 μM) was 73.2 ± 1.3%. It also gave a viability at 24 h, 0.5 µM ([4]; 0.5 μM) of 56 ± 10%.

With `Cc1[nH]c2ccccc2c1CCNCc1ccc(/C=C/C(=O)NO)cc1` [Panobinostat, reference compound] the “effect of Gö 6983 on latency reversal” value (J-Lat 10.6 cells; LRA at 0.1 μM) was “unaffected” and the CD69-positive cells (Jurkat cells; 0.1 μM) was 1.5 ± 1.3%.

For `C=C(C)C12OC3(/C=C/C=C/CCC)OC1C1C4OC4(CO)C(O)C4(O)C(=O)C(C)=CC4C1(O3)C(C)C2OC(=O)c1ccccc1` (stereo not shown) [Compound 1, yuanhuacine A], the viability at 24 h, 1.5 µM [1] was 96.4 ± 32.2%, the “inhibition of HIV replication across all test concentrations” value ([5]; test concentrations 0.08 to 5 μg/mL) was 65–80% and the CC50 [6] was greater than 15 µM. The “average fold increase in viral RNA” value ([2]; 1.5 μM) was 10.8 fold, the “average supernatant viral RNA” value ([2]; 1.5 μM) was 352.5 ± 430.4 copies/mL and the “cytotoxicity (Alamar Blue)” value (HeLa-SXR5 cell line) was “no evidence of cytotoxicity at any concentration”. The EC50 [7, 8] was 30 nM, the EC90 [7, 8] was 90 nM and the inhibition at 0.08 µg/mL [7, 8] was greater than 80%. The “Selectivity Index CC50/IC50” value ([7]; PBMC) was greater than 500, the “GFP expression (latency reversal), %” value ([3]; 0.15 μM) was 65.5 ± 6.3% and the CD69-positive cells (Jurkat cells; 0.5 μM) was 75.4 ± 2.2%. The viability at 24 h, 1.5 µM [4] was 51.2 ± 11.2%.

`Cc1cn([C@H]2C[C@H](N=[N+]=[N-])[C@@H](CO)O2)c(=O)[nH]c1=O` [AZT, azidothymidine, reference compound] showed a CC50 (in vitro) greater than 1000 nM, an EC50 [7, 9] of 7 nM and an EC90 [7, 9] of 50 nM. For the same compound, the “Selectivity Index CC50/IC50” value ([7]; PBMC) was greater than 142.

For `O=C1Nc2ccc(Cl)cc2[C@@](C#CC2CC2)(C(F)(F)F)O1` [efavirenz], the inhibition at 0.43 µM ([5]; Human immunodeficiency virus 1, NL43, 430 nM) was 43.9 ± 41.9%, the inhibition at 0.93 µM ([5]; Human immunodeficiency virus 1, NL43, 930 nM) was 111 ± 22.1% and the inhibition at 2 µM ([5]; Human immunodeficiency virus 1, NL43, 2000 nM) was 107 ± 24.1%. For the same compound, the inhibition at 4.3 µM ([5]; Human immunodeficiency virus 1, NL43, 4300 nM) was 100%.

In the case of `C=C(C)C12OC3(/C=C/C=C/CCCCC)OC1C1C4OC4(CO)C(O)C4(O)C(=O)C(C)=CC4C1(O3)C(C)C2OC(=O)c1ccccc1` (stereo not shown) [Compound 2, yuanhuacine], the viability at 24 h, 1.5 µM [1] is reported as 79.6 ± 41.5%, the “average fold increase in viral RNA” value ([2]; 1.5 μM) is reported as 9.1 fold and the “average supernatant viral RNA” value ([2]; 1.5 μM) is reported as 297 ± 267 copies/mL. The inhibition at 0.08 µg/mL [7, 8] was greater than 80%, the “GFP expression (latency reversal), %” value ([3]; 0.15 μM) was 58.2 ± 4.7% and the CD69-positive cells (Jurkat cells; 0.5 μM) was 74.5 ± 1.3%. The viability at 24 h, 1.5 µM [4] was 58.5 ± 15.9%.
